Assay results: article PMC3569154 (Clinical Psychopharmacology and Neuroscience, 2012)

Assays:
[1] = biological target: T1, [^3H]glycine uptake sites (GlyT-1) (Mus musculus, UniProt P28571); assay: Inhibition of [^3H]glycine uptake in mouse brain homogenates; assay type: biochemical
T1 sequence (P28571 1-692): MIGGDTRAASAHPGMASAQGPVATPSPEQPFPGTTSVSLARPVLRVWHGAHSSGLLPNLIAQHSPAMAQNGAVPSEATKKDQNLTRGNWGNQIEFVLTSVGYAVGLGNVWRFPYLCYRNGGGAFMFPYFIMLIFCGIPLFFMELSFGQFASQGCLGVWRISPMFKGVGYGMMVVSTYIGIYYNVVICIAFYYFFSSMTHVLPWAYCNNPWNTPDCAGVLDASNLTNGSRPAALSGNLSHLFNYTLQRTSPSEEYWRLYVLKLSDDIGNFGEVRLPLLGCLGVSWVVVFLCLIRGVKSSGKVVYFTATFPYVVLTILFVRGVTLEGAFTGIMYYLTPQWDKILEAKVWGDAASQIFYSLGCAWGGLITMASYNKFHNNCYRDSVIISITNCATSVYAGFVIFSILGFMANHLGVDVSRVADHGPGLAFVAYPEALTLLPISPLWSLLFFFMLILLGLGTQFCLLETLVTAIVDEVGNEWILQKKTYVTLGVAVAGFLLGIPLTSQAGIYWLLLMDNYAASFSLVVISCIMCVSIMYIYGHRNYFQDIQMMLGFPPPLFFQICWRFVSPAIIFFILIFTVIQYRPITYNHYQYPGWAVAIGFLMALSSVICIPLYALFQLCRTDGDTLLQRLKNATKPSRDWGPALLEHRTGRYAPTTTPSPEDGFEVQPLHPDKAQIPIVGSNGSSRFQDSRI

[2] = test system: 28-standard receptor-binding profile; details: 1µM; cited from earlier work

CN1CCCC[C@@H]1[C@@H](NC(=O)c1nccc(C(F)(F)F)c1Cl)c1ccsc1 [CHIBA-3007, 3-chloro-N-((S)-((R)-1-methylpiperidin-2-yl)(thiophen-3-yl)methyl)-4-(trifluoromethyl)picolinamide]
IC50 [1]: 2.7 nM
inhibition in 28-standard receptor-binding profile [2]: < 50%
